Ends that are not written are not given here.
Legend:
[1] = test system: MMS-induced Mre11myc foci; assay: Immunofluorescence of MMS-induced Mre11myc foci in vegetative yeast, 1,6-hexanediol treatment; format: cell-based, Saccharomyces cerevisiae SK1; conditions: 5% 1,6-hexanediol, 4–5 minutes, spheroplasts, vegetative cells
Description: Following standard protocols, strains were patched on YPG plates, mated and streaked on YPD plates, and selected diploid colonies grown in liquid YPD at 30°C, 250 rpm, overnight. For meiotic synchronization, diploid cultures grown overnight in YPD were transferred to YPA (1% yeast extract, 2% peptone, 1% potassium acetate) at OD600 0.2 and grown for 12–14 hours at 30°C, 250 rpm. […]
Slides were blocked with 90% FBS, 1× PBS for 1 hour at room temperature in a humid chamber and then incubated with primary antibody (mouse mAb anti-myc, 1:200 (2276S, Cell Signaling Technology), rabbit anti-phospho H2A-S129, 1:200 (ab15083, abcam)) diluted in 3% BSA, 1× PBS in a humid chamber for 2 hours at 37°C or overnight at 4°C. Slides were washed three times with 1× PBS in a Coplin jar, were incubated with secondary antibody (goat anti-mouse IgG Alexa Fluor™ Plus 488, 1:200 (A32723, Invitrogen), donkey anti-rabbit IgG Alexa Fluor™ 546, 1:200 (A10040, Invitrogen) diluted in 3% BSA, 1× PBS in a humid chamber at 37°C for 1 hour. Slides were washed in the dark three times for 5 mins with 1× PBS, mounted with Vectashield containing DAPI (Vector Labs). Images were captured on a Zeiss Axio Observer with a 100×/1.4 NA oil immersion objective and were analyzed in ImageJ.

[2] = test system: mre11-ΔC49 and mre11-ΔIDR yeast strains; assay: MMS and CPT sensitivity assay (spotting of serial dilutions); format: cell-based, Saccharomyces cerevisiae SK1; conditions: ten-fold serial dilutions on YPD plates, two days at 30°C; for resistance of mre11-ΔC49 mutant: mre11-ΔC49 strain; for resistance of mre11-ΔIDR mutants: mre11-ΔIDR strain
Description: Following standard protocols, strains were patched on YPG plates, mated and streaked on YPD plates, and selected diploid colonies grown in liquid YPD at 30°C, 250 rpm, overnight. For meiotic synchronization, diploid cultures grown overnight in YPD were transferred to YPA (1% yeast extract, 2% peptone, 1% potassium acetate) at OD600 0.2 and grown for 12–14 hours at 30°C, 250 rpm. Once the cultures reached OD600 between 1.2–1.6, cells were washed once with prewarmed sterile water and immediately transferred to sporulation medium supplemented with amino acids (320 μL amino acid complementation media for 100 mL of sporulation media (SPM)) and were kept shaking at 30°C, 250 rpm during the entire meiotic time-course. For MMS and CPT (Sigma) sensitivity assays, serial dilutions of overnight cultures were spotted on freshly prepared YPD-MMS or YPD-CPT plates containing indicated percentage of MMS or CPT, respectively. Plates were grown for two days at 30°C. For immunofluorescence of vegetatively growing cells, overnight cultures were refreshed by diluting to OD600 0.2 and grown for 3–4 hours to reach OD600 1.2–1.4 before subjecting to MMS or MMS followed by 5% 1,6-hexanediol treatment. For 5% 1,6-hexanediol treatment, cells were first converted to spheroplasts and then treated with 5% 1,6-hexanediol for 4–5 minutes. Spheroplasts were then immediately washed, lysed, and fixed using protocol described below.

Smt3 = biological target: T1, Smt3 (Saccharomyces cerevisiae, UniProt Q12306); assay: NMR chemical shift perturbation of U-[13C,15N] Smt3 by SIM3 peptides; format: binding, yeast (S. cerevisiae); conditions: [1H,15N] HSQC, 1.2 molar equivalents of peptide, 0.3 mM U-[13C,15N] Smt3, 20 mM sodium phosphate, 20 mM NaCl, pH 6.5, 10% D2O, 298 K, 800 MHz
T1 construct: 6xHis (C); made in house; host or cells: E. coli BL21 (DE3)pLysS
Description: For the production of the doubly labeled U-[^13C, ^15N] […] The purification protocol remained the same as described above.
The samples contained 0.3–0.6 mM of U-[^13C,^15N] […] All NMR spectra were acquired at 298 K on a Bruker Avance III HD 800 MHz spectrometer, equipped with a TCI cryoprobe. The NMR data were processed in TopSpin 3.6 (Bruker) or NMRPipe[70] and analyzed in CCPNMR[71]. Assignments of Smt3 backbone amide resonances were taken from literature[72] and verified by 3D HNCACB, HN(CO)CACB, and ^15N-edited NOESY-HSQC spectra. […] The assigned ^1H, ^13C and ^15N chemical shifts of the free and bound Smt3 have been deposited in the Biological Magnetic Resonance Bank (http://www.bmrb.wisc.edu/) under the accession number 53209.
The NMR binding experiments were performed by an incremental addition of wild-type or mutant SIM peptides (1.2 mM stocks in the working buffer) to 0.3 mM samples of U-[^13C,^15N] Smt3, with the spectral changes monitored in [^1H,^15N] HSQC spectra acquired at each increment. The average chemical shift perturbations (Δδavg) were calculated as Δδavg = (ΔδX^2/50 + ΔδH^2/2)^0.5, where ΔδX and ΔδH are the chemical shift changes of the backbone amide nitrogens or methyl carbons (ΔδX) and protons (ΔδH) of Smt3 residues upon addition of 1.2 molar equivalents of SIM peptides, and n = 50 or 9 for the backbone amide and methyl groups, respectively.

Mer2 [3] = assay: Co-expression NiNTA pulldown of MBP-Mre11-C49 (prey) with HisSUMO-Mer2 (bait); format: binding, S. cerevisiae; conditions: co-expression in E. coli, anti-MBP elution/input signal normalized to wild type, at least seven independent samples
Description: The vector for expression of ^MBPMre11-C49 and ^HisSUMOMer2 (pCCB1040) was based on a pET-Duet1 vector with the sequence coding for ^MBPMre11-C49 cloned within the first position (SacI site) and the sequence coding for ^HisSUMOMer2 cloned at the second position (XhoI site). The EQEK mutations and LLK mutations were introduced by PCR amplification of pCCB1040 with primers cb1561 and cb1562, and pp84 and pp85, followed by phosphorylation and self-ligation to yield plasmids pry59 and pry61, respectively.
Wild-type and mutant MBP-tagged Mre11-C49 and HisSUMO-tagged Mer2 were co-expressed in 50 mL of E. coli BL21 cultures and purified by affinity chromatography on Ni-NTA resin following a procedure similar to that described above. Briefly, cells were lysed by sonication and centrifuged at maximum speed for 30 mins at 4°C on a table-top centrifuge. A small fraction of the supernatant was collected as ‘Input’ and the remainder was incubated with 120 μL Ni-NTA resin, pre-equilibrated with wash buffer (25 mM HEPES pH 7.5, 20 mM imidazole, 0.1 mM DTT, 0.1 mM PMSF, 10% glycerol), for 1 hour on a rotating wheel at 4°C. The resin was washed twice with 2 ml in batch and five times with 2 ml on column before eluting with 250 μL of 500 mM imidazole in wash buffer. […]

Mer2 [4] = assay: In vitro colocalization of Mre11 with Mer2 condensates; format: binding, S. cerevisiae
Description: Proteins were diluted to a 10× stock of their appropriate working concentrations in their respective storage buffers. […] Unless specified otherwise, all reactions contained 400 nM ^Alexa488Mre11 or 100 nM ^eGFPMRX. A typical 20 μL binding reaction contained 2 μL protein of 10× stock of indicated concentration, 10 μL of 2× reaction buffer, and 150 ng of supercoiled pUC19 (5.7 nM). Typical reactions were assembled at 30°C for 30 mins with gentle mixing every 5 mins, unless mentioned otherwise. 5 μL was dropped onto a microscope slide and covered with a coverslip. All images were captured on a Zeiss Axio Observer with a 100×/1.4 NA oil immersion objective except for images provided in Figure 4G which were captured on Leica Stellaris DMI 8 confocal microscope with a 63x/1.2 NA water immersion objective. Images were analyzed with ImageJ using a custom-made script. In brief, 129.24 × 129.24-μm (2048 × 2048-pixel) images were thresholded to mean intensity of the background plus three times the standard deviation of the background. Masked foci were counted and the intensity inside the focus mask was integrated. Data points represent averages of at least 8–10 images per sample. Data were analyzed using Graphpad Prism 10.4.0.

T1 sequence (Q12306 whole entry): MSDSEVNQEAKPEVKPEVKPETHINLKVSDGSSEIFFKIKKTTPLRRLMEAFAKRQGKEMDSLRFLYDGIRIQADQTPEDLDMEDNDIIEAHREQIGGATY

| Compound | resistance of mre11-ΔC49 mutant [2] | resistance of mre11-ΔIDR mutants [2] | interaction of Mre11-C49 and Mer2 in pulldown (anti-MBP immunoblot) (Mer2 [3]) | other results |
| --- | --- | --- | --- | --- |
| OCCCCCCO [1,6-hexanediol] | – | – | – | effect on MMS-induced Mre11 foci [1]: readily dissolved MMS-induced foci |
| COS(C)(=O)=O [MMS, methylmethanesulfonate] | resistant | as resistant to MMS or CPT as wild-type cells | – | – |
| CC[C@@]1(O)C(=O)OCc2c1cc1n(c2=O)Cc2cc3ccccc3nc2-1 [camptothecin] | resistant | as resistant to MMS or CPT as wild-type cells | – | – |
| ENDIIMVSTDE [wild-type SIM3 peptide] | – | – | – | backbone amide chemical shift perturbation of Smt3 (Smt3): induced strong backbone amide chemical shift to Smt3 residues I35, F36, F37, K38, I39 and R46 |
| Mre11-C49: Mre11 C-terminal residues (644–692) (SYGLLNGRKTKTKTRPAASTKTASRRGKGRASRTPKTDILGSLLAKKRK; also: MBP fusion, end not given here) | – | – | directly binds Mer2 | localization of Mre11-C49 around Mer2 condensates (Mer2 [4]; 800 nM mScarletMre11-C49 and 200 nM eGFPMer2, 30 min): forms a halo-like structure around Mer2 condensates; independent condensate formation of Mre11-C49 (Mer2 [4]; 800 nM mScarletMre11-C49 without eGFPMer2): does not form condensates independently |
| Mre11-LLK: Mre11-C49 with L683, L686, and K690 mutated to alanine (SYGLLNGRKTKTKTRPAASTKTASRRGKGRASRTPKTDIAGSALAKARK; also: MBP fusion, end not given here) | – | – | strongly decreased the interaction between the two partners | – |

From article doi:10.1101/2025.07.08.663703, “Recruitment of Mre11 to recombination sites during meiosis” (bioRxiv, 2025)
